According to patent publication EP3928779A1 (Chugai Seiyaku Kabushiki Kaisha, priority 2014, dated 2016):

System: rat small-intestinal brush border membrane vesicles
Assay: Inhibitory effect on 33PO4 uptake into rat small-intestinal brush border membrane vesicles (rapid filtration method)
Type: biochemical
Conditions: 33PO4 uptake into rat small-intestinal BBMVs; test compound 1 µM; reacted for 60 seconds
Procedure, shortened: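 Uptake of ^33PO4 was measured by rapid filtration and liquid scintillation counting of filter-retained vesicles, after quenching with ice-cold 110 mM NaCl/1 mM KH2PO4/10 mM HEPES pH 7.5. Vesicles were brush border membranes from the upper small intestine of female Wistar rats aged 4–5 weeks.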

Question: C[C@]12CCCN1N(Cc1ccc(CCCOCCCO)c(F)c1F)C(=O)C(C(=O)Nc1ccc(C(F)(F)F)cc1-c1ccc(C(F)(F)F)nc1)=C2O [Example 141] was tested. Which “Rate of uptake inhibition (%) (1 µM)” value did it give?
Answer: 83%

Question: How did the “Rate of uptake inhibition (%) (1 µM)” value turn out when COCCN1CCN(CCOc2ccc(CN3C(=O)C(C(=O)Nc4ccc(C(F)(F)F)cc4-c4cc(C(F)(F)F)ncn4)=C(O)C4(CCCC4)N3C)c(F)c2F)CC1 [Example 377] was run?
Answer: 29%

Question: CN(C)CC(C)(C)COc1ccc(CN2C(=O)C(C(=O)Nc3ccc(C(F)(F)F)cc3-c3cc(C(F)(F)F)ncn3)=C(O)C3(CCCC3)N2C)c(F)c1F [Example 414, 7-(4-(3-(Dimethylamino)-2,2-dimethylpropoxy)-2,3-difluorobenzyl)-10-hydroxy-6-methyl-8-oxo-N-(4-(trifluoromethyl)-2-(6-(trifluoromethyl)pyrimidin-4-yl)phenyl)-6,7-diazaspiro[4.5]dec-9-ene-9-carboxamide] was tested. Which “Rate of uptake inhibition (%) (1 µM)” value did it give?
Answer: 27%

Question: For C[C@]12CCCN1N(Cc1cccc(OC(F)(F)F)c1)C(=O)C(C(=O)Nc1ccc(C(F)(F)F)cc1-c1cc(C(F)(F)F)ncn1)=C2O [Example 189], which “Rate of uptake inhibition (%) (1 µM)” value is on record?
Answer: 73%

Question: How did the “Rate of uptake inhibition (%) (1 µM)” value turn out when CSc1ccc(-c2cc(C(F)(F)F)ccc2NC(=O)C2=C(O)C3(CCCC3)N(C)N(Cc3ccc(OCCN4CCOCC4)c(F)c3F)C2=O)cn1 [Example 289] was run?
Answer: 55%

Question: How did the “Rate of uptake inhibition (%) (1 µM)” value turn out when CN1N(Cc2ccc(OCCOCCNCC(O)CO)c(F)c2F)C(=O)C(C(=O)Nc2ccc(C(F)(F)F)cc2-c2cc(C(F)(F)F)ncn2)=C(O)C12CCCC2 (stereo not drawn) [Example 419, 7-[[4-[2-[2-(2,3-Dihydroxypropylamino)ethoxy]ethoxy]-2,3-difluorophenyl]methyl]-10-hydroxy-6-methyl-8-oxo-N-[4-(trifluoromethyl)-2-[6-(trifluoromethyl)pyrimidin-4-yl]phenyl]-6,7-diazaspiro[4.5]dec-9-ene-9-carboxamide] was run?
Answer: 22%

Question: Which “Rate of uptake inhibition (%) (1 µM)” value does the source give for Cc1cccc(CN2C(=O)C(C(=O)Nc3ccc(C(F)(F)F)cc3-c3cc(C(F)(F)F)ncn3)=C(O)[C@@]3(C)CCCN23)c1F [Example 215] here?
Answer: 86%

Question: How did the “Rate of uptake inhibition (%) (1 µM)” value turn out when COC(=O)COc1ccc(CN2C(=O)C(C(=O)Nc3ccc(C(F)(F)F)cc3-c3ccc(C(F)(F)F)nc3)=C(O)[C@@]3(C)CCCN23)c(F)c1F [Example 150, Methyl 2-[4-[[(4aR)-4-Hydroxy-4a-methyl-2-oxo-3-[[4-(trifluoromethyl)-2-[6-(trifluoromethyl)pyridin-3-yl]phenyl]carbamoy]-6,7-dihydro-5H-pyrrolor[1,2-b]pyridazin-1-yl]methyl]-2,3-difluorophenoxy] acetate] was run?
Answer: 87%

Question: For C[C@]12CCCN1N(Cc1cccc(F)c1F)C(=O)C(C(=O)Nc1ccc(Br)cc1)=C2O [Example 77], which “Rate of uptake inhibition (%) (1 µM)” value is on record?
Answer: 80%

Question: How did the “Rate of uptake inhibition (%) (1 µM)” value turn out when C[C@]12CCCN1N(Cc1cccc(F)c1Cl)C(=O)C(C(=O)Nc1cc(F)c(Br)c(F)c1)=C2O [Example 174] was run?
Answer: 87%

Question: C[C@]12CCCN1N(Cc1cccc([N+](=O)[O-])c1)C(=O)C(C(=O)Nc1ccc(Br)c(F)c1)=C2O [Example 27] was tested. Which “Rate of uptake inhibition (%) (1 µM)” value did it give?
Answer: 76%

Question: With C[C@]12CCCN1N(Cc1ccc(C#CCN3CCCC3=O)c(F)c1F)C(=O)C(C(=O)Nc1ccc(Br)c(F)c1)=C2O [Example 131] as the compound, how does the “Rate of uptake inhibition (%) (1 µM)” value read?
Answer: 87%

Question: COCCN(C)CCN(C)c1ccc(CN2C(=O)C(C(=O)Nc3ccc(C(F)(F)F)cc3-c3cc(C(F)(F)F)ncn3)=C(O)C3(CCCC3)N2C)c(F)c1F [Example 442] was tested. Which “Rate of uptake inhibition (%) (1 µM)” value did it give?
Answer: 24%

Question: CN1N(Cc2ccc(OCCN3CCOCC3)c(F)c2F)C(=O)C(C(=O)Nc2ccc(C(F)(F)F)cc2-c2cc(C(F)(F)F)ncn2)=C(O)C12CCCC2 [Example 318, 7-[[2,3-Difluoro-4-(2-morpholin-4-ylethoxy)phenyl]methyl]-10-hydroxy-6-methyl-8-oxo-N-[4-(trifluoromethyl)-2-[6-(tritluoromethyl)pyrimidin-4-yl]phenyl]-6,7-diazaspiro[4.5]dec-9-ene-9-carboxamide] was tested. Which “Rate of uptake inhibition (%) (1 µM)” value did it give?
Answer: 43%

Question: For CC(=O)N(C)CCN(C)CCOc1ccc(CN2C(=O)C(C(=O)Nc3ccc(C(F)(F)F)cc3-c3cc(C(F)(F)F)ncn3)=C(O)C3(CCC3)N2C)c(F)c1F [Example 354], which “Rate of uptake inhibition (%) (1 µM)” value is on record?
Answer: 31%

Question: Which “Rate of uptake inhibition (%) (1 µM)” value does the source give for COc1cncc(-c2cc(C(F)(F)F)ccc2NC(=O)C2=C(O)[C@@]3(C)CCCN3N(Cc3cccc(F)c3F)C2=O)c1 [Example 81] here?
Answer: 74%

Question: How did the “Rate of uptake inhibition (%) (1 µM)” value turn out when CN1N(Cc2cccc(F)c2F)C(=O)C(C(=O)Nc2ccc(Cl)cc2-c2ccc(C(F)(F)F)nc2)=C(O)C1(C)C [Example 309] was run?
Answer: 68%

Question: Which “Rate of uptake inhibition (%) (1 µM)” value does the source give for CC(C)[C@@H]1C(O)=C(C(=O)Nc2ccc(Cl)cc2-c2ccc(C(F)(F)F)nc2)C(=O)N(Cc2cccc(F)c2F)N1C [Example 251] here?
Answer: 43%

Question: Which “Rate of uptake inhibition (%) (1 µM)” value does the source give for C[C@@H]1COC[C@H](C)N1CCOc1ccc(CN2C(=O)C(C(=O)Nc3ccc(C(F)(F)F)cc3-c3cc(C(F)(F)F)ncn3)=C(O)C3(CCCC3)N2C)c(F)c1F [Example 370] here?
Answer: 41%

Question: For CCN1[C@@H](C(C)(C)C)C(O)=C(C(=O)Nc2cc(F)c(Br)c(F)c2)C(=O)N1Cc1cccc(F)c1F [Example 246], which “Rate of uptake inhibition (%) (1 µM)” value is on record?
Answer: 52%

Question: Which “Rate of uptake inhibition (%) (1 µM)” value does the source give for C[C@]12CCCN1N(Cc1cccc(F)c1F)C(=O)C(C(=O)Nc1ccc(C(F)(F)F)cc1)=C2O [Example 89] here?
Answer: 67%

Question: COCCOCCOCCCCCCCCN1C(=O)C(C(=O)Nc2ccc(C(F)(F)F)cc2-c2cc(C(F)(F)F)ncn2)=C(O)[C@@]2(C)CCCN12 [Example 236, (4aR)-4-Hydroxy-1-[8-[2-(2-methoxyethoxy)ethoxy]octyl]-4a-methyl-2-oxo-N-[4-(trifluoromethyl)-2-[6-(trifluoromethyl)pyrimidine-4-yl]phenyl]-6,7-dihydro-5H-pyrrolo[1,2-b]pyridazine-3-carboxamide] was tested. Which “Rate of uptake inhibition (%) (1 µM)” value did it give?
Answer: 60%

Question: Which “Rate of uptake inhibition (%) (1 µM)” value does the source give for CN(CCOc1ccc(CN2C(=O)C(C(=O)Nc3ccc(C(F)(F)F)cc3-c3cc(C(F)(F)F)ncn3)=C(O)C3(CCCC3)N2C)c(F)c1F)C1CCOCC1 [Example 365] here?
Answer: 34%

Question: Which “Rate of uptake inhibition (%) (1 µM)” value does the source give for C[C@]12CCCN1N(Cc1cccc(Cl)c1)C(=O)C(C(=O)Nc1cc(F)c(Br)c(F)c1)=C2O [Example 221] here?
Answer: 82%

Question: For CN(C[C@H](O)[C@@H](O)[C@H](O)[C@H](O)CO)C(=O)CCOCCOCCOCCOc1ccc(CN2C(=O)C(C(=O)Nc3ccc(C(F)(F)F)cc3-c3cc(C(F)(F)F)ncn3)=C(O)C3(CCCC3)N2C)c(F)c1F [Example 423], which “Rate of uptake inhibition (%) (1 µM)” value is on record?
Answer: 5%

Question: For COC(=O)CN(C)CCOc1ccc(CN2C(=O)C(C(=O)Nc3ccc(C(F)(F)F)cc3-c3cc(C(F)(F)F)ncn3)=C(O)C3(CCC3)N2C)c(F)c1F [Example 346], which “Rate of uptake inhibition (%) (1 µM)” value is on record?
Answer: 42%

Question: CN1N(Cc2ccc(OCCN3CCOCC3)c(F)c2F)C(=O)C(C(=O)Nc2ccc(C(F)(F)F)cc2-c2ncnc(C(F)(F)F)c2Cl)=C(O)C12CCC2 [Example 284] was tested. Which “Rate of uptake inhibition (%) (1 µM)” value did it give?
Answer: 46%

Question: With COc1c(C#N)ncnc1-c1cc(C(F)(F)F)ccc1NC(=O)C1=C(O)[C@@]2(C)CCCN2N(Cc2cccc(F)c2F)C1=O [Example 25] as the compound, how does the “Rate of uptake inhibition (%) (1 µM)” value read?
Answer: 82%

Question: For C[C@]12CCCN1N(Cc1cccc(F)c1F)C(=O)C(C(=O)Nc1ccc(Br)cc1F)=C2O [Example 75], which “Rate of uptake inhibition (%) (1 µM)” value is on record?
Answer: 74%

Question: Which “Rate of uptake inhibition (%) (1 µM)” value does the source give for COc1cc(-c2cc(C(F)(F)F)ccc2NC(=O)C2=C(O)C(C)(C)N(C)N(Cc3cccc(F)c3F)C2=O)cnc1C#N [Example 302] here?
Answer: 79%
